From patent US12473304B2, “Heterocyclic PAD4 inhibitors” (BRISTOL-MYERS SQUIBB COMPANY, priority 2020, dated 2025)

Molecular target: human PAD4 (hPAD4) (Homo sapiens (Human), UniProt Q9UM07)
Test: RFMS Human PAD4 Functional Assay 1
Assay type: biochemical
Conditions: RFMS assay 1; 5 nM hPAD4, 250 μM BAEE substrate, 50 μM calcium, 37° C.
Procedure: RFMS Human PAD4 Functional Assay 1:
Compounds were solubilized in 100% DMSO to achieve all) mM compound concentration. Compound stock solutions were stored at RT. A series of dilutions were prepared in DMSO and mixed 8 times with 20 μL mixing volume. Final top concentration of compound in the assay is 50 μM. Final assay conditions were as follows: • Reaction volume: 26 μl • Assay buffer: 25 mM hepes, pH 7.5, 5 mM NaCl, 1 mM DTT, 0.2 mg/ml BSA, 0.01% CHAPS, 50 μM Calcium, and 5 μM TPEN • Final concentrations: 5 nM hPAD4 enzyme, 250 μM BASE, and 0.5% DMSO • Total incubation time: 30 mins compound and enzyme preincubation at 37° C., 90 min enzyme/substrate reaction, 30 min reaction with phenyl glyoxal at 37° C. • Stop solution: 40 μl 5% TCA in ACN
0.13 μL of compound solution was added to 13 μL of 10 nM PAD4 in assay buffer. After 30 min 13 μl of 500 μM of BAEE was added in 25 mM hepes, pH 7.5, 5 mM NaCl, 1 mM DTT, 0.2 mg/ml BSA, 0.01% CHAPS, 50 μM Calcium, 5 μM TPEN was added and the reaction incubated for 90 min at 37° C. The enzymatic reaction was quenched by addition of 15 μl of 6.1N TCA, 100% Final Concentration is 20%, 35 μl of 8.5 mM phenyl glyoxal (final concentration 4 mM) is then added and the reaction is incubated for 30 min at 37° C.
After 30 minutes the plates are spun down to remove all precipitate. The enzyme reaction was quenched with an equal volume of methanol containing internal standard (modified citrulline). Samples were loaded onto the Rapid Fire RF300 system (Agilent) wherein they were first sipped for 1000 ms and then directly loaded to a C18 separations cartridge using a mixture of acetonitrile containing 0.01% formic acid for 3000 ms desalting. The flow rate of the mobile phase was 1.5 ml/min. Once the samples were eluted from the cartridge, a mobile phase of acetonitrile containing 0.01% formic acid was used to move the samples into the mass spectrometer for 4000 ms at a flow rate of 1.25 ml/min/Sciex API5500 triple quadrupole mass spectrometer (Applied Biosystems) equipped with ESI was used to analyze the peptidyl citrulline and internal standard ions.
MRM transition of product and internal standard were monitored at m/z 424.5 to 350.4 and m/z 293 to 247 respectively. The dwell time for each transition was set at 200 ms, and the ESI voltage was used at 5500 with a source temperature of 400° C. Extracted ion peaks for each transition were integrated using the Rapid Fire Integrator software. Peak area of analyte was normalized with internal standard.).

Sequence of human PAD4 (hPAD4) (Q9UM07 whole entry): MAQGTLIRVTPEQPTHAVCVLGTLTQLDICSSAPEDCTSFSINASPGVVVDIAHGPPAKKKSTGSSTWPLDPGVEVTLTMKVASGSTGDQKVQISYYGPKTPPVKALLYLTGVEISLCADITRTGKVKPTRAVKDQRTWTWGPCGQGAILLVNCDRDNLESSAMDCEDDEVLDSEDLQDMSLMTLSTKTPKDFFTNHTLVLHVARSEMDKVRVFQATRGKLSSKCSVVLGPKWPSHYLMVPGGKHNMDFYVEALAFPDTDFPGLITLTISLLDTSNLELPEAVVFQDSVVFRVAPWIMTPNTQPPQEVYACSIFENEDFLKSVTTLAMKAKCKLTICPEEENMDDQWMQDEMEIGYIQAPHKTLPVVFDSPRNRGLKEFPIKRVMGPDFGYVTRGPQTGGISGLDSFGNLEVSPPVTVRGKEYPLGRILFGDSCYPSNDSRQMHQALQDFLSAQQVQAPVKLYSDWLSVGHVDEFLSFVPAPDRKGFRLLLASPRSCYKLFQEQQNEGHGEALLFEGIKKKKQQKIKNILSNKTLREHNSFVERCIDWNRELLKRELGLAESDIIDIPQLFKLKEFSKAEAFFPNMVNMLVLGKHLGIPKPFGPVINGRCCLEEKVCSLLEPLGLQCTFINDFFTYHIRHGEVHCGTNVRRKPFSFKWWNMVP

IC50 [µM] | SMILES
0.12 | Cc1c(-c2cc3ccc(OCC4CNC(=O)C4)nc3n2CC2CC2)nn2cc(C(=O)N3CC4CCC3[C@@H]4N)cc(F)c12 (mixture of isomers) [Example 275, 4-{[(2-{6-[(7R)-7-Amino-2-azabicyclo[2.2.1]heptane-2-carbonyl]-4-fluoro-3-methylpyrazolo[1,5-a]pyridin-2-yl}-1-(cyclopropylmethyl)-1H-pyrrolo[2,3-b]pyridin-6-yl)oxy]methyl}pyrrolidin-2-one]
0.02 | Cc1c(-c2cc3ccc(C(C)(O)C(F)F)nc3n2CC2CC2)nn2cc(C(=O)N3CC4CCC3[C@@H]4N)ccc12 (mixture of isomers) [Example 381, 2-(2-{6-[(7R)-7-Amino-2-azabicyclo[2.2.1]heptane-2-carbonyl]-3-methylpyrazolo[1,5-a]pyridin-2-yl}-1-(cyclopropylmethyl)-1H-pyrrolo[2,3-b]pyridin-6-yl)-1,1-difluoropropan-2-ol]
0.15 | Cc1c(-c2cc3ccc(C(C)(O)C(F)(F)F)nc3n2CC2CC2)nn2cc(C(=O)N3CCC[C@@H](N)C3)ccc12 (mixture of isomers) [Example 382, 2-(2-{6-[(3R)-3-Aminopiperidine-1-carbonyl]-3-methylpyrazolo[1,5-a]pyridin-2-yl}-1-(cyclopropylmethyl)-1H-pyrrolo[2,3-b]pyridin-6-yl)-1,1,1-trifluoropropan-2-ol]
0.27 | Cc1c(-c2cc3ccc(C(C)O)nc3n2CC2CC2)nn2cc(C(=O)N3CCC[C@@H](N)C3)ccc12 (mixture of isomers) [Example 385, 1-(2-{6-[(3R)-3-Aminopiperidine-1-carbonyl]-3-methylpyrazolo[1,5-a]pyridin-2-yl}-1-(cyclopropylmethyl)-1H-pyrrolo[2,3-b]pyridin-6-yl)ethan-1-ol]
0.04 | COc1cc(C(=O)N2CCC[C@@H](N)C2)cn2nc(-c3cc4cccc(C5CCN(C(=O)C6CC(O)(C(F)(F)F)C6)CC5)c4n3CC3CC3)c(C)c12 (mixture of isomers) [Example 398, (R)-(3-Aminopiperidin-1-yl)(2-(1-(cyclopropylmethyl)-7-(1-(3-hydroxy-3-(trifluoromethyl)cyclobutane-1-carbonyl)piperidin-4-yl)-1H-indol-2-yl)-4-methoxy-3-methylpyrazolo[1,5-a]pyridin-6-yl)methanone]
0.05 | COc1cc(C(=O)N2C[C@H](N)C[C@@H](F)C2)cn2nc(-c3cc4cccc(C5CCN(C(=O)C6CC(O)(C(F)(F)F)C6)CC5)c4n3CC3CC3)c(C)c12 (mixture of isomers) [Example 399, ((3R,5R)-3-Amino-5-fluoropiperidin-1-yl)(2-(1-(cyclopropylmethyl)-7-(1-(3-hydroxy-3-(trifluoromethyl)cyclobutane-1-carbonyl)piperidin-4-yl)-1H-indol-2-yl)-4-methoxy-3-methylpyrazolo[1,5-a]pyridin-6-yl)methanone]
0.66 | COc1cc(C(=O)N2CCC[C@@H](N)C2)cn2nc(-c3cc4cccc(C5CCN(C(=O)C6CCCO6)CC5)c4n3CC3CC3)c(C)c12 (mixture of isomers) [Example 400, ((R)-3-Aminopiperidin-1-yl)(2-(1-(cyclopropylmethyl)-7-(1-(tetrahydrofuran-2-carbonyl)piperidin-4-yl)-1H-indol-2-yl)-4-methoxy-3-methylpyrazolo[1,5-a]pyridin-6-yl)methanone]
8.25 | Cc1c(-c2cc3cccc(C4CCN(C(=O)C5CC(O)C5)CC4)c3n2CC2CC2)nn2cc(C(=O)N3C[C@H](N)C[C@@H](F)C3)cc(F)c12 (mixture of isomers) [Example 419, ((3R,5R)-3-Amino-5-fluoropiperidin-1-yl)(2-(1-(cyclopropylmethyl)-7-(1-(3-hydroxycyclobutane-1-carbonyl)piperidin-4-yl)-1H-indol-2-yl)-4-fluoro-3-methylpyrazolo[1,5-a]pyridin-6-yl)methanone]
0.29 | Cc1c(-c2cc3cccc(C4CCN(C(=O)C5CC(O)C5)CC4)c3n2CC2CC2)nn2cc(C(=O)N3CCC[C@@H](N)C3)cc(F)c12 (mixture of isomers) [Example 420, (R)-(3-Aminopiperidin-1-yl)(2-(1-(cyclopropylmethyl)-7-(1-(3-hydroxycyclobutane-1-carbonyl)piperidin-4-yl)-1H-indol-2-yl)-4-fluoro-3-methylpyrazolo[1,5-a]pyridin-6-yl)methanone]
0.08 | Cc1c(-c2cc3cccc(C4CCN(C(=O)C5CC(O)(C(F)(F)F)C5)CC4)c3n2CC2CC2)nn2cc(C(=O)N3C[C@H](N)C[C@@H](F)C3)cc(F)c12 (mixture of isomers) [Example 421, ((3R,5R)-3-Amino-5-fluoropiperidin-1-yl)(2-(1-(cyclopropylmethyl)-7-(1-(3-hydroxy-3-(trifluoromethyl)cyclobutane-1-carbonyl)piperidin-4-yl)-1H-indol-2-yl)-4-fluoro-3-methylpyrazolo[1,5-a]pyridin-6-yl)methanone]
0.4 | Cc1c(-c2cc3cccc(C4CCN(C(=O)C5CC(O)(C(F)(F)F)C5)CC4)c3n2CC2CC2)nn2cc(C(=O)N3CCC[C@@H](N)C3)cc(F)c12 (mixture of isomers) [Example 422, (R)-(3-Aminopiperidin-1-yl)(2-(1-(cyclopropylmethyl)-7-(1-(3-hydroxy-3-(trifluoromethyl)cyclobutane-1-carbonyl)piperidin-4-yl)-1H-indol-2-yl)-4-fluoro-3-methylpyrazolo[1,5-a]pyridin-6-yl)methanone]
0.03 | Cc1c(-c2cc3cccc(C4CCN(C(=O)C5CC(O)(C(F)(F)F)C5)CC4)c3n2CC2CC2)nn2cc(C(=O)N3CCC[C@@H](N)C3)ccc12 (mixture of isomers) [Example 456, (R)-(3-aminopiperidin-1-yl)(2-(1-(cyclopropylmethyl)-7-(1-(3-hydroxy-3-(trifluoromethyl)cyclobutane-1-carbonyl)piperidin-4-yl)-1H-indol-2-yl)-3-methylpyrazolo[1,5-a]pyridin-6-yl)methanone]
0.08 | Cc1c(-c2cc3cccc(C4CCN(C(=O)C5CCCCO5)CC4)c3n2CC2CC2)nn2cc(C(=O)N3C[C@H](N)C[C@@H](F)C3)ccc12 (mixture of isomers) [Example 458]
0.03 | Cc1c(-c2cc3cccc(C4CCN(C(=O)C5CCCO5)CC4)c3n2CC2CC2)nn2cc(C(=O)N3CCC[C@@H](N)C3)ccc12 (mixture of isomers) [Example 462, ((R)-3-aminopiperidin-1-yl)(2-(1-(cyclopropylmethyl)-7-(1-(tetrahydrofuran-2-carbonyl)piperidin-4-yl)-1H-indol-2-yl)-3-methylpyrazolo[1,5-a]pyridin-6-yl)methanone]
0.1 | Cc1c(-c2cc3cccc(C4CCN(C(=O)C5CCCO5)CC4)c3n2CC2CC2)nn2cc(C(=O)N3C[C@H](N)C[C@@H](F)C3)ccc12 (mixture of isomers) [Example 463, ((3R,5R)-3-amino-5-fluoropiperidin-1-yl)(2-(1-(cyclopropylmethyl)-7-(1-(tetrahydrofuran-2-carbonyl)piperidin-4-yl)-1H-indol-2-yl)-3-methylpyrazolo[1,5-a]pyridin-6-yl)methanone]
